Measurements as given in ChEMBL document CHEMBL3792305, “Computational Tools To Model Halogen Bonds in Medicinal Chemistry” (J Med Chem, 2016).
pKd, pKi: −log10 of the molar value. One block for each compound: values may come before it.

Tests used:
[1] = molecular target: T1, Casein kinase II subunit alpha (Homo sapiens, UniProt P68400); test: Inhibition of CK2alpha (unknown origin)
[2] = molecular target: T1, Casein kinase II subunit alpha; test: Competitive inhibition of human wild type CK2alpha by Dixon plot analysis
[3] = molecular target: Casein kinase II (Homo sapiens, UniProt P19784+P67870+P68400); test: Inhibition of CK2 (unknown origin); assay type: protein-complex assay
Chain of Casein kinase II (P67870 whole entry): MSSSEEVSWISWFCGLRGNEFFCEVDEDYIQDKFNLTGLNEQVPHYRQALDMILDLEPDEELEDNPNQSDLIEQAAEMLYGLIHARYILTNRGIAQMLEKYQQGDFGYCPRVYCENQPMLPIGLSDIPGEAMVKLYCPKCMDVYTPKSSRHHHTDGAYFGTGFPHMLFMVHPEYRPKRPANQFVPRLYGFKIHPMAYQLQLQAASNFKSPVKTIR
Chain of Casein kinase II (P68400 whole entry): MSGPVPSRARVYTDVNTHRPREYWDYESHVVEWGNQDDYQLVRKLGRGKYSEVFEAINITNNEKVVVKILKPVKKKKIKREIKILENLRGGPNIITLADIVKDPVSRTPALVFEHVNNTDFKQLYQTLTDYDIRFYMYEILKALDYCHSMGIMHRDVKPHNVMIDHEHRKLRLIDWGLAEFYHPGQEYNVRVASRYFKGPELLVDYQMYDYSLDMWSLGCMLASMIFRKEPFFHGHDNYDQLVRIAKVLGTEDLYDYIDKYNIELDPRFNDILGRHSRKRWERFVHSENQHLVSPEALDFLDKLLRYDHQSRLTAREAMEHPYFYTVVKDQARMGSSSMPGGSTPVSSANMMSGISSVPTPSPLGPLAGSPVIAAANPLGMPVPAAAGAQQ
Chain of Casein kinase II (P19784 whole entry): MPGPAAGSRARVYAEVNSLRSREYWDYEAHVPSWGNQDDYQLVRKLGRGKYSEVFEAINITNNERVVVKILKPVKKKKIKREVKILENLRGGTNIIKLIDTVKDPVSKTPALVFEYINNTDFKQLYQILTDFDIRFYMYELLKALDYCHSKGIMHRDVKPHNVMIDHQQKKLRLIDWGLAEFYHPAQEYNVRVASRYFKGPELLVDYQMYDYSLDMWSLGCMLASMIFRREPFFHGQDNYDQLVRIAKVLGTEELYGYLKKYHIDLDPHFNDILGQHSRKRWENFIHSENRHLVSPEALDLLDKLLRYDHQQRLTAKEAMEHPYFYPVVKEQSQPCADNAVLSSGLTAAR

[4] = molecular target: Human immunodeficiency virus type 1 reverse transcriptase (Human immunodeficiency virus 1) (UniProt Q72547); test: Binding affinity to HIV1 reverse transcriptase relative to control
[5] = molecular target: T1, Casein kinase II subunit alpha; test: Inhibition of human wild type CK2alpha
[6] = molecular target: Cellular tumor antigen p53 (Homo sapiens, UniProt P04637, Y220C); test: Stabilization of human p53 Y220C mutant by differential scanning calorimetry
[7] = molecular target: T2, Adenosine kinase (Toxoplasma gondii) (UniProt Q9TVW2); test: Binding affinity to Toxoplasma gondii adenosine kinase assessed as formation of [14C]AMP from [14C]adenosine and ATP after 10 mins by liquid scintillation counting method relative to control
T2 sequence (whole entry): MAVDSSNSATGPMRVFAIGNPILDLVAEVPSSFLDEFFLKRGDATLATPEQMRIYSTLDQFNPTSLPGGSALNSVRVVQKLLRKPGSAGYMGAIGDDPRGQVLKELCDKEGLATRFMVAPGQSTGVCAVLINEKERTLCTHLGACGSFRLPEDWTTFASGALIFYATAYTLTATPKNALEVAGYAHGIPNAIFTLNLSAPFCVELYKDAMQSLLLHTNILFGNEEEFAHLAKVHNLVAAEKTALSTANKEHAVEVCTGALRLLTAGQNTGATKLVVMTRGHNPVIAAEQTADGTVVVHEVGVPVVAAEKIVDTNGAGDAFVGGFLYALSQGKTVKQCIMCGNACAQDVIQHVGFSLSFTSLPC

T1 sequence (P68400 whole entry): as the sequence (P68400 whole entry) above

SMILES: FC(F)(F)c1nc2c(Br)c(Br)c(Br)c(Br)c2[nH]1
pKi [1]: 6.40

SMILES: Clc1c(Cl)c(I)c2[nH]cnc2c1I
pKi [2]: 6.52

SMILES: S=C1NC2C(I)=C(I)C(I)=C(I)C2N1 (stereo not given)
pKi [3]: 6.70

SMILES: CS(=O)(=O)c1nc2c(Br)c(Br)c(Br)c(Br)c2[nH]1
pKi [2]: 6.82

SMILES: Nc1ncnc2c1c(I)cn2[C@@H]1O[C@H](CO)[C@@H](O)[C@H]1O
fold change (FC) [7]: 200

SMILES: FC(F)(F)c1nc2c(I)c(I)c(I)c(I)c2[nH]1
pKi [3]: 6.43

More lines, now with the values ahead:

fold change (FC) [4]: 300
SMILES: O=c1[nH]ccc(Oc2ccccc2)c1I

pKi [5]: 7.15
SMILES: S=c1[nH]c2c(Br)c(Br)c(Br)c(Br)c2[nH]1

pKi [2]: 6.70
SMILES: Cc1nc2c(I)c(Cl)c(Cl)c(I)c2[nH]1

pKd [6]: 3.82
SMILES: CCn1c2ccccc2c2cc(CNC)ccc21
